We go through seven compounds from US20010027216A1, “Method for preventing hormone induced adverse effects” (priority 2000, published 2001).

Entries after “also recorded” stand apart in the source; their conditions may differ.

Format in all cases: cell-based, human
Test [1] has as its system ECC-1 endometrial cancer cells. Nature of the test: ECC-1 cell proliferation, [3H]thymidine incorporation into DNA. Particulars: for cell proliferation rate (cpm): concentration range 0.01 to 4 μM (FIG. 1 panel A); for effect on endometrial cancer cell growth over increasing concentrations: three days. The method, then:
Cells were cultured in DMEM containing penicillin (100 U/ml), streptomycin (0.1 mg/ml)) nystatin (12.5 (g/ml), insulin (0.6 (g/ml), and 10% FCS. Cells were stripped of endogenous steroids according to the procedure of Vignon et al. (1987, Biochem. Biophys. Res. Comm., 146:1502-8) by successive passages in medium without phenol red containing 10% and then 3% of charcoal-stripped FCS. Cells were seeded into 96 multiwell plates (5,000 cells per well) in DMEM containing 3% of charcoal-stripped FCS. After one day the medium was changed to one containing the solubilized carotenoid or THF alone. The medium was changed daily to ensure a continuous supply of carotenoid. After incubation, the number of cells and the rate of cell proliferation were estimated by the incorporation of [^3H]thymidine incorporation into cellular DNA, as described in U.S. Pat. No. 5,827,900. Cell growth was also measured by direct cell counting with a Coulter counter after trypsinization and dilution in Isotone-II (Coulter Electronics, Luton, England). A good correlation was found between the two methods. ECC-1 cells were incubated with increasing concentrations of the isoflavones genistein and daidzein, the two primary isoflavones in soy products, and with soy extract. Cell proliferation after three days was measured by [^3H]thymidine incorporation into DNA (FIG. 1, panel A). […] ECC-1 cells were also incubated with a single high concentration (40 μM) of each of genistein, daidzein and soy extract. Cell proliferation was assayed daily over the course of three days.

Test [2] relates to MCF-7 mammary cancer cells. Nature of the test: MCF-7 cell proliferation, [3H]thymidine incorporation. Particulars: for phytoestrogen-induced cell proliferation: genistein 4 μM. The method, then:
(§1) Cells were cultured in DMEM containing penicillin (100 U/ml), streptomycin (0.1 mg/ml)) nystatin (12.5 (g/ml), insulin (0.6 (g/ml), and 10% FCS. Cells were stripped of endogenous steroids according to the procedure of Vignon et al. (1987, Biochem. Biophys. Res. Comm., 146:1502-8) by successive passages in medium without phenol red containing 10% and then 3% of charcoal-stripped FCS. Cells were seeded into 96 multiwell plates (5,000 cells per well) in DMEM containing 3% of charcoal-stripped FCS. After one day the medium was changed to one containing the solubilized carotenoid or THF alone. The medium was changed daily to ensure a continuous supply of carotenoid.
(§2) After incubation, the number of cells and the rate of cell proliferation were estimated by the incorporation of [^3H]thymidine incorporation into cellular DNA, as described in U.S. Pat. No. 5,827,900. Cell growth was also measured by direct cell counting with a Coulter counter after trypsinization and dilution in Isotone-II (Coulter Electronics, Luton, England). A good correlation was found between the two methods.
The comparative effects of estradiol and genistein supplementation on the proliferation of the hormone-dependent cell lines MCF-7 mammary cancer and ECC-1 endometrial cancer were examined (FIG. 2).
MCF-7 mammary cancer cells were stimulated by genistein (4 μM) and test cultures were additionally supplemented with lycopene or phytoene or a combination of both, at either physiological concentrations (FIG. 6, panel A) or at about one order of magnitude greater than the physiological concentrations (FIG. 6, panel B).

Test [3] has as its system MDA-231 mammary cancer cells. Nature of the test: MDA-231 cell proliferation, [3H]thymidine incorporation. The method, then: as §1, §2
Thus genistein not only stimulates hormone-dependent cancer cell proliferation, but IGF-I as well as other growth factors further augment this effect.
Background: Incorporation of labelled thymidine or its analogues reports DNA synthesis.

[4] abbreviates: stimulated by estradiol at 10 nM (FIG. 4).
[5] abbreviates: stimulated by genistein at 1 μM (FIG. 4).
Setting [6] is: 40 μM, after one day of incubation (FIG. 1, panel B).
[7] abbreviates: 0.4 and 4 μM, after three days (FIG. 1, panel A).
Setting [8] is: lycopene 3 to 5 μM, three days in culture.
[9] abbreviates: high, non-physiological concentrations of the individual carotenoids (FIG. 6, panel B).
The mark [10] stands for this setting: lycopene 3 to 5 μM, IGF-1 30 nM.

Take `CC1=C(/C=C/C(C)=C/C=C/C(C)=C/C=C/C=C(C)/C=C/C=C(C)/C=C/C2=C(C)C(=O)[C@@H](O)CC2(C)C)C(C)(C)C[C@H](O)C1=O` [astaxanthin]: in test [1] (setting [4]), the estradiol-induced cell proliferation result is recorded as “effectively inhibited”. Moreover, in test [1] (setting [5]), the genistein-induced cell proliferation entry is listed as “effective inhibitors; also recorded: effectively inhibited”.

With `CC1=C(/C=C/C(C)=C/C=C/C(C)=C/C=C/C=C(C)/C=C/C=C(C)/C=C/C2=C(C)CCCC2(C)C)C(C)(C)CCC1` [beta-carotene], the estradiol-induced cell proliferation entry in test [1] (setting [4]) is reported as “effectively inhibited”. Besides, the genistein-induced cell proliferation entry in test [1] (setting [5]) is reported as “effective inhibitors; also recorded: effectively inhibited”.

Turning to `O=c1c(-c2ccc(O)cc2)coc2cc(O)ccc12` [daidzein, reference compound], in test [1] (setting [6]), the cell proliferation result was “significantly increases cell proliferation; also recorded: stimulated cell proliferation”. Also, the cell proliferation result in test [1] (setting [7]) was “stimulated cell proliferation”. Further, in test [1], the “cell proliferation rate (cpm)” value is “significant increase in cell proliferation rate” and the “effect on endometrial cancer cell growth over increasing concentrations” value is listed as “only stimulatory”.

Take `O=c1c(-c2ccc(O)cc2)coc2cc(O)cc(O)c12` [genistein, reference compound]: the cell proliferation result in test [1] (setting [6]) is reported as “significantly increases cell proliferation; also recorded: stimulated cell proliferation”; in test [1] (40 μM, second day in culture (FIG. 1, panel B)), “inhibitory effects”; in test [1] (setting [7]), “stimulated cell proliferation”; in test [1] (higher, non-physiological concentrations (10 μM), after three days in culture (FIG. 1, panel A)) it was “inhibited cell proliferation”. The “cell proliferation rate (cpm)” value in test [1] was “significant increase in cell proliferation rate”. In test [1], the “effect on endometrial cancer cell growth over increasing concentrations” value was “biphasic effects on proliferation, stimulating at low concentrations and inhibiting at high concentrations”. The “effect on proliferation over increasing concentrations” value in test [2] (increasing concentrations (FIG. 2, panel A)) is “biphasic effects on proliferation, stimulating at low concentrations and inhibiting at high concentrations”. Further, the “stimulatory effect of genistein in the presence of IGF-I” value in test [2] (with IGF-1 30 nM (FIG. 3, panel A)) was “further augmented”. The “stimulation of cell growth by genistein” value in test [3] (FIG. 3, panel B) was “not by genistein”.

As for `CC(C)=CCC/C(C)=C/C=C/C(C)=C/C=C/C(C)=C/C=C/C=C(C)/C=C/C=C(C)/C=C/C=C(\C)CCC=C(C)C` [lycopene], the estradiol-induced cell proliferation entry in test [1] (estradiol 10 nM, various concentrations of lycopene, lowest 0.9 μM (FIG. 5)) is “all lycopene concentrations tested were effective in inhibiting”; in test [1] (setting [4]), “effectively inhibited”. The genistein-induced cell proliferation entry in test [1] (genistein 1 μM, various concentrations of lycopene, lowest 0.9 μM (FIG. 5)) is on record as “all lycopene concentrations tested were effective in inhibiting”; in test [1] (setting [5]) it was “effective inhibitors; also recorded: effectively inhibited”. Moreover, the basal growth result in test [1] (setting [8]) and in test [2] (setting [8]) was “significantly inhibited” throughout. The “estrogen-induced (either genistein or estradiol) growth” value in test [1] (setting [8]) and in test [2] (setting [8]) was “substantially inhibited; also recorded: significantly inhibited” in each case. The phytoestrogen-induced cell proliferation result in test [2] (setting [9]) is listed as “effective in significantly inhibiting”; in test [2] (low (physiological) concentration: lycopene 0.4 μM, mixture of phytoene and phytofluene 6 μM (FIG. 6, panel A)) it was “do not significantly affect”. Besides, the “IGF stimulation of cell growth” value in test [2] (setting [10]) and in test [3] (setting [10]) was “inhibits IGF stimulation” throughout. Besides, in test [3] (setting [10]), the “cell proliferation compared with controls” value was “reduced to levels less than that of controls”.

For `CC(C)=CCC/C(C)=C/CC/C(C)=C/CC/C(C)=C/C=C/C=C(\C)CC/C=C(\C)CC/C=C(\C)CCC=C(C)C` [phytoene], in test [1] (setting [5]), the genistein-induced cell proliferation entry is “effective inhibitors”. Further, the phytoestrogen-induced cell proliferation result in test [2] (setting [9]) is on record as “effective in significantly inhibiting”.

Take “IGF-1: Human recombinant IGF-1 purchased from GroPep”: the cell growth result in test [2] (IGF-1 30 nM (FIG. 3, panel A)) is recorded as “significantly stimulates cell growth”; in test [3] (IGF-1 30 nM (FIG. 3, panel B)), “significantly stimulates cell growth”.
